Literature values in patent publication US7579489B2, “Processes for the preparation and purification of hydroxymethylfuraldehyde and derivatives” (Archer-Daniels-Midland Company, priority 2004, dated 2009).

Details: water/octanol; values taken from Hansch & Leo (1979) and Leo, Hansch & Elkins (1971)

Question: Which “Log P” value does the source give for `CCC(C)=O` [2-Butanone] here?
Answer: Its value is 0.29.

Question: For `CCCCCC(C)=O` [2-Heptanone], which “Log P” value is on record?
Answer: The value was 1.83.

Question: Which “Log P” value does the source give for `CCCC(C)=O` [2-Pentanone] here?
Answer: Its value is 0.91.

Question: With `CCCCOC(C)=O` [Butyl acetate] as the compound, how does the “Log P” value read?
Answer: Its value is 1.71.

Question: With `ClC(Cl)Cl` [Chloroform] as the compound, how does the “Log P” value read?
Answer: The value was 2.24.

Question: Which “Log P” value does the source give for `C1COCCO1` [Dioxane] here?
Answer: Its value is −0.27.

Question: With `CCOC(C)=O` [Ethyl acetate] as the compound, how does the “Log P” value read?
Answer: The value was 0.66.

Question: With `NC=O` [Formamide] as the compound, how does the “Log P” value read?
Answer: The value was −1.51.

Question: For `CC(=O)CC(C)C` [Methyl isobutyl ketone], which “Log P” value is on record?
Answer: Its value is 1.32.
